# Laboratory results from patent US12077503B2, “Substituted cyclic amides and their use as herbicides” (FMC CORPORATION, priority 2015, dated 2024).
# How the values were obtained:
# Format in all cases: in vivo
# [1] = tested on: barnyardgrass (Echinochloa crus-galli); assay: Test B flooded paddy test; conditions: Flood, 250 g ai/ha, 0 to 100 scale where 0 is no effect and 100 is complete control
# Outline: (§1)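 Evaluation by eye, against controls, occurred 13–15 d post-treatment in a greenhouse, using a 0 (no effect) to 100 (complete control) scale. Application was into the paddy water, 3 cm deep over the soil, on 2-leaf plants.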
# [2] = tested on: sedge, umbrella (small-flower umbrella sedge, Cyperus difformis); assay: Test B flooded paddy test; conditions: Flood, 250 g ai/ha, 0 to 100 scale where 0 is no effect and 100 is complete control
# Outline: as §1
# [3] = tested on: ducksalad (Heteranthera limosa); assay: Test B flooded paddy test; conditions: Flood, 250 g ai/ha, 0 to 100 scale where 0 is no effect and 100 is complete control
# Outline: as §1
# rice (Oryra sativa) = assay: Test B flooded paddy test; conditions: Flood, 250 g ai/ha, 0 to 100 scale where 0 is no effect and 100 is complete control
# Outline: as §1
# [4] = tested on: giant foxtail (Setaria faberii); assay: Test A postemergence
# Outline: (§2)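 Preemergence directed soil spray on seeded pots, or postemergence application to plants 2–10 cm, one- to two-leaf. Solvent mixture non-phytotoxic, with surfactant. Scored ~10 d later, visually, 0–100 vs untreated.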
# [5] = tested on: ragweed (common ragweed, Ambrosia elatior); assay: Test A postemergence
# Outline: as §2
# [6] = tested on: blackgrass (Alopecurus myosuroides); assay: Test A postemergence
# Outline: as §2
# [7] = tested on: ryegrass, Italian (Italian ryegrass, Lolium multiflorum); assay: Test A postemergence
# Outline: as §2
# [8] = tested on: barnyardgrass (Echinochloa crus-galli); assay: Test A postemergence
# Outline: as §2
# Kochia (Kochia scoparia) [9] = assay: Test A postemergence
# Outline: as §2
# [10] = tested on: wheat (Triticum aestivum); assay: Test A postemergence
# Outline: as §2
# corn (Zea mays) = assay: Test A postemergence
# Outline: as §2
# [11] = tested on: Galium (catchweed bedstraw, Galium aparine); assay: Test A postemergence
# Outline: as §2
# [12] = tested on: pigweed (Amaranthus retroflexus); assay: Test A postemergence
# Outline: as §2
# [13] = tested on: giant foxtail (Setaria faberii); assay: Test A preemergence; conditions: for Foxtail, Giant plant response rating (0 to 100 scale, 0 is no effect, 100 is complete control): Preemergence
# Outline: as §2
# [14] = tested on: ragweed (common ragweed, Ambrosia elatior); assay: Test A preemergence
# Outline: as §2
# [15] = tested on: ryegrass, Italian (Italian ryegrass, Lolium multiflorum); assay: Test A preemergence
# Outline: as §2
# [16] = tested on: barnyardgrass (Echinochloa crus-galli); assay: Test A preemergence; conditions: for Barnyardgrass plant response rating (0 to 100 scale, 0 is no effect, 100 is complete control): Preemergence
# Outline: as §2
# Kochia (Kochia scoparia) [17] = assay: Test A preemergence; conditions: for Kochia plant response rating (0 to 100 scale, 0 is no effect, 100 is complete control): Preemergence
# Outline: as §2
# [18] = tested on: pigweed (Amaranthus retroflexus); assay: Test A preemergence
# [19] = 125 g ai/ha, postemergence, visual injury rating on 0 to 100 scale (0 no effect, 100 complete control), approx. 10 d
# [20] = Postemergence, 500 g ai/ha, 0 to 100 scale where 0 is no effect and 100 is complete control
# [21] = 500 g ai/ha, postemergence, 0 to 100 scale, 0 no effect, 100 complete control
# [22] = 125 g ai/ha, preemergence, 0 to 100 scale (0 no effect, 100 complete control)
# [23] = 500 g ai/ha, visual injury approx. 10 d
# [24] = 125 g ai/ha, Preemergence, visual injury after approximately 10 d, 0 to 100 scale where 0 is no effect and 100 is complete control
# [25] = Preemergence, 500 g ai/ha, visual injury approx. 10 d
# [26] = 125 g ai/ha, Postemergence, visual injury after approximately 10 d, 0 to 100 scale where 0 is no effect and 100 is complete control
# [27] = 500 g ai/ha, postemergence, visual injury, 0 to 100 scale (0 no effect, 100 complete control), approx. 10 d
# [28] = 125 g ai/ha, visual injury rating after approximately 10 d
# [29] = 500 g ai/ha, preemergence, visual injury rating about 10 d after treatment, 0 to 100 scale (0 no effect, 100 complete control)
# [30] = 125 g ai/ha, Preemergence, visual injury rating after approximately 10 d
smiles,measurement,setting,value
CN1CC(c2ccc(C(F)(F)F)cc2F)C(C(=O)Nc2ccc(F)cc2F)C1=O (stereo not drawn) [Compound 474],"Plant response rating, Barnyardgrass",[1]; 13 to 15 d,30
same,"Plant response rating, Sedge, Umbrella",[2]; 13 to 15 d,0
same,"Plant response rating, Ducksalad",[3]; 13 to 15 d,80
same,"Plant response rating, Rice",rice (Oryra sativa); 13 to 15 d,0
same,"Foxtail, Giant plant response rating",[4]; [19],90
same,"Plant response rating, Foxtail, Giant",[4]; [20],90
same,Ragweed plant response rating,[5]; [19],0
same,"Plant response rating, Ragweed",[5]; [20],0
same,Blackgrass plant response rating,[6]; [19],30
same,"Plant response rating, Blackgrass",[6]; [21],50
same,"Ryegrass, Italian plant response rating",[7]; [19],20
same,"Plant response rating, Ryegrass, Italian",[7]; [20],50
same,Barnyardgrass plant response rating,[8]; [19],90
same,"Plant response rating, Barnyardgrass",[8]; [21],90
same,Kochia plant response rating,Kochia (Kochia scoparia) [9]; [19],50
same,"Plant response rating, Kochia",Kochia (Kochia scoparia) [9]; [20],60
same,Wheat plant response rating,[10]; [19],0
same,"Plant response rating, Wheat",[10]; [20],30
same,Corn plant response rating,corn (Zea mays); [19],0
same,"Plant response rating, Corn",corn (Zea mays); [21],20
same,Galium plant response rating,[11]; [19],40
same,"Plant response rating, Galium",[11]; [20],50
same,Pigweed plant response rating,[12]; [19],30
same,"Plant response rating, Pigweed",[12]; [20],30
same,"Plant response rating, Foxtail, Giant",[13]; [22],90
same,"Foxtail, Giant plant response rating (0 to 100 scale, 0 is no effect, 100 is complete control)",[13]; [23],90
same,"Plant response rating, Ragweed",[14]; [24],0
same,"Ragweed plant response rating (0 to 100 scale, 0 is no effect, 100 is complete control)",[14]; [25],20
same,"Plant response rating, Ryegrass, Italian",[15]; [24],0
same,"Ryegrass, Italian plant response rating (0 to 100 scale, 0 is no effect, 100 is complete control)",[15]; [25],50
same,"Plant response rating, Barnyardgrass",[16]; [22],90
same,"Barnyardgrass plant response rating (0 to 100 scale, 0 is no effect, 100 is complete control)",[16]; [23],90
same,"Plant response rating, Kochia",Kochia (Kochia scoparia) [17]; [22],60
same,"Kochia plant response rating (0 to 100 scale, 0 is no effect, 100 is complete control)",Kochia (Kochia scoparia) [17]; [23],70
same,"Plant response rating, Pigweed",[18]; [24],30
same,"Pigweed plant response rating (0 to 100 scale, 0 is no effect, 100 is complete control)",[18]; [25],90
Cc1ccc([C@H]2CN(C)C(=O)[C@@H]2C(=O)Nc2ccccc2[S+](C)[O-])cc1Cl (stereo partly drawn) [Compound 1017],Barnyardgrass plant response rating,[1],70
same,"Sedge, Umbrella plant response rating",[2],0
same,Ducksalad plant response rating,[3],90
same,Rice plant response rating,rice (Oryra sativa),30
same,"Plant response rating, Foxtail, Giant",[4]; [26],90
same,"Plant response rating, Foxtail, Giant",[4]; [27],90
same,"Plant response rating, Ragweed",[5]; [26],0
same,"Plant response rating, Ragweed",[5]; [27],40
same,"Plant response rating, Blackgrass",[6]; [26],0
same,"Plant response rating, Blackgrass",[6]; [27],40
same,"Plant response rating, Ryegrass, Italian",[7]; [26],30
same,"Plant response rating, Ryegrass, Italian",[7]; [27],50
same,"Plant response rating, Barnyardgrass",[8]; [26],90
same,"Plant response rating, Barnyardgrass",[8]; [27],90
same,"Plant response rating, Kochia",Kochia (Kochia scoparia) [9]; [26],40
same,"Plant response rating, Kochia",Kochia (Kochia scoparia) [9]; [27],60
same,"Plant response rating, Wheat",[10]; [26],20
same,"Plant response rating, Wheat",[10]; [27],60
same,"Plant response rating, Corn",corn (Zea mays); [26],80
same,"Plant response rating, Corn",corn (Zea mays); [27],90
same,"Plant response rating, Galium",[11]; [26],40
same,"Plant response rating, Galium",[11]; [27],70
same,"Plant response rating, Pigweed",[12]; [26],0
same,"Plant response rating, Pigweed",[12]; [27],40
same,"Foxtail, Giant plant response rating (0 to 100 scale, 0 is no effect, 100 is complete control)",[13]; [28],90
same,"Foxtail, Giant plant response rating",[13]; [29],90
same,"Ragweed plant response rating (0 to 100 scale, 0 is no effect, 100 is complete control)",[14]; [30],0
same,Ragweed plant response rating,[14]; [29],90
same,"Ryegrass, Italian plant response rating (0 to 100 scale, 0 is no effect, 100 is complete control)",[15]; [30],0
same,"Ryegrass, Italian plant response rating",[15]; [29],70
same,"Barnyardgrass plant response rating (0 to 100 scale, 0 is no effect, 100 is complete control)",[16]; [28],90
same,Barnyardgrass plant response rating,[16]; [29],90
same,"Kochia plant response rating (0 to 100 scale, 0 is no effect, 100 is complete control)",Kochia (Kochia scoparia) [17]; [28],0
same,Kochia plant response rating,Kochia (Kochia scoparia) [17]; [29],70
same,"Pigweed plant response rating (0 to 100 scale, 0 is no effect, 100 is complete control)",[18]; [30],50
same,Pigweed plant response rating,[18]; [29],60
